Experimental data published in US9062071B2, “Substituted piperidines as HDM2 inhibitors” (Merck Sharp & Dohme Corp, priority 2011, dated 2015).

Target: HDM2 protein (Homo sapiens, UniProt Q00987)
Experiment: fluorescence polarization screening assay (FP IC50)
Assay type: binding
Details: class symbols
Method: The compounds were evaluated to determine activity at the HDM2 protein by known methods such as the fluorescence polarization screening assay that measures the inhibitory concentration that achieves 50% of maximal activity (FP IC50) and the dissociation constant for inhibitor binding (FP Ki). [Zhang et al., J. Analytical Biochemistry 331: 138-146 (2004)].

Chain of HDM2 protein (Q00987 whole entry): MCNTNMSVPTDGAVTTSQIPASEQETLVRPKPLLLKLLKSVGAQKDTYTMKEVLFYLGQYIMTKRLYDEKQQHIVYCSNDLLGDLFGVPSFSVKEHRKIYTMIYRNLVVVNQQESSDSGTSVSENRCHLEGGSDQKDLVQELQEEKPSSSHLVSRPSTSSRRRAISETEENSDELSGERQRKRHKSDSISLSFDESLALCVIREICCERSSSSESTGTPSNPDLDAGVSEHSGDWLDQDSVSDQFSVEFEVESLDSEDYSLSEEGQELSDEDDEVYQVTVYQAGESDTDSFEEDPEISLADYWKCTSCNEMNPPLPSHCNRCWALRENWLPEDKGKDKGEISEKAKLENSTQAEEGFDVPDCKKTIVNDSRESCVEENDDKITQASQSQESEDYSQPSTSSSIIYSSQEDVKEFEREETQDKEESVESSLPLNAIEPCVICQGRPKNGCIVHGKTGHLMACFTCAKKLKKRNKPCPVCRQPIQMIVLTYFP

IC50 [nM]	Structure (SMILES)
1 to 100	CCC[C@H]1N(C(=O)c2cnccc2C(F)(F)F)CCC[C@@]1(Oc1csc(C(F)(F)F)c1)C(=O)N1CCc2ccccc2C1CC(=O)O (stereo partly drawn) [Compound A122, (2-{[(2R,3S)-2-propyl-1-{[4-(trifluoromethyl)pyridin-3-yl]carbonyl}-3-{[5-(trifluoromethyl)thiophen-3-yl]oxy}piperidin-3-yl]carbonyl}-1,2,3,4-tetrahydroisoquinolin-1-yl)acetic acid]
1 to 100	CCC[C@H]1N(C(=O)c2ncccc2C(F)(F)F)CCC[C@@]1(Oc1csc(C(F)(F)F)c1)C(=O)N1Cc2ccc(F)cc2C[C@@H]1C(=O)O [Compound A123, (3R)-6-fluoro-2-{[(2R,3S)-2-propyl-1-{[3-(trifluoromethyl)pyridin-2-yl]carbonyl}-3-{[5-(trifluoromethyl)thiophen-3-yl]oxy}piperidin-3-yl]carbonyl}-1,2,3,4-tetrahydroisoquinoline-3-carboxylic acid]
1 to 100	CCC[C@H]1N(C(=O)c2ncccc2C(F)(F)F)CCC[C@@]1(Oc1csc(C(F)(F)F)c1)C(=O)N1Cc2ccc(F)cc2C[C@@H]1CCC(=O)O [Compound A124, 3-[(3S)-6-fluoro-2-{[(2R,3S)-2-propyl-1-{[3-(trifluoromethyl)pyridin-2-yl]carbonyl}-3-{[5-(trifluoromethyl)thiophen-3-yl]oxy}piperidin-3-yl]carbonyl}-1,2,3,4-tetrahydroisoquinolin-3-yl]propanoic acid]
1 to 100	CCC[C@H]1N(C(=O)c2ncccc2C(F)(F)F)CCC[C@@]1(Oc1csc(C(F)(F)F)c1)C(=O)N1Cc2ccc(F)cc2C[C@H]1C(=O)O [Compound A125, (3S)-6-fluoro-2-{[(2R,3S)-2-propyl-1-{[3-(trifluoromethyl)pyridin-2-yl]carbonyl}-3-{[5-(trifluoromethyl)thiophen-3-yl]oxy}piperidin-3-yl]carbonyl}-1,2,3,4-tetrahydroisoquinoline-3-carboxylic acid]
1 to 100	CCC[C@H]1N(C(=O)c2ncccc2C(F)(F)F)CCC[C@@]1(Oc1csc(C(F)(F)F)c1)C(=O)N1Cc2ccc(F)cc2C[C@H]1CCC(=O)O [Compound A127, 3-[(3R)-6-fluoro-2-{[(2R,3S)-2-propyl-1-{[3-(trifluoromethyl)pyridin-2-yl]carbonyl}-3-{[5-(trifluoromethyl)thiophen-3-yl]oxy}piperidin-3-yl]carbonyl}-1,2,3,4-tetrahydroisoquinolin-3-yl]propanoic acid]
1 to 100	CCC[C@H]1N(C(=O)c2ncccc2C(F)(F)F)CCC[C@@]1(Oc1csc(C(F)(F)F)c1)C(=O)N1Cc2cc(F)ccc2C[C@H]1C(=O)O [Compound A128, (3S)-7-fluoro-2-{[(2R,3S)-2-propyl-1-{[3-(trifluoromethyl)pyridin-2-yl]carbonyl}-3-{[5-(trifluoromethyl)thiophen-3-yl]oxy}piperidin-3-yl]carbonyl}-1,2,3,4-tetrahydroisoquinoline-3-carboxylic acid]
1 to 100	CCC[C@H]1N(C(=O)c2ncccc2C(F)(F)F)CCC[C@@]1(Oc1csc(C(F)(F)F)c1)C(=O)N1Cc2ccc(Cl)cc2C[C@@H]1C(=O)O [Compound A129, (3R)-6-chloro-2-{[(2R,3S)-2-propyl-1-{[3-(trifluoromethyl)pyridin-2-yl]carbonyl}-3-{[5-(trifluoromethyl)thiophen-3-yl]oxy}piperidin-3-yl]carbonyl}-1,2,3,4-tetrahydroisoquinoline-3-carboxylic acid]
1 to 100	CCC[C@H]1N(C(=O)c2ncccc2C(F)(F)F)CCC[C@@]1(Oc1csc(C(F)(F)F)c1)C(=O)N1Cc2ccc(Cl)cc2C[C@@H]1CCC(=O)O [Compound A130, 3-[(3S)-6-chloro-2-{[(2R,3S)-2-propyl-1-{[3-(trifluoromethyl)pyridin-2-yl]carbonyl}-3-{[5-(trifluoromethyl)thiophen-3-yl]oxy}piperidin-3-yl]carbonyl}-1,2,3,4-tetrahydroisoquinolin-3-yl]propanoic acid]
1 to 100	CCC[C@H]1N(C(=O)c2ncccc2C(F)(F)F)CCC[C@@]1(Oc1csc(C(F)(F)F)c1)C(=O)N1Cc2ccc(F)cc2C[C@@H]1CCCCC(=O)O [Compound A131, 5-[(3S)-6-fluoro-2-{[(2R,3S)-2-propyl-1-{[3-(trifluoromethyl)pyridin-2-yl]carbonyl}-3-{[5-(trifluoromethyl)thiophen-3-yl]oxy}piperidin-3-yl]carbonyl}-1,2,3,4-tetrahydroisoquinolin-3-yl]pentanoic acid]
1 to 100	CCC[C@H]1N(C(=O)c2ncccc2C(F)(F)F)CCC[C@@]1(Oc1csc(C(F)(F)F)c1)C(=O)N1Cc2cc(F)ccc2C[C@@H]1CCC(=O)O [Compound A132, 3-[(3S)-7-fluoro-2-{[(2R,3S)-2-propyl-1-{[3-(trifluoromethyl)pyridin-2-yl]carbonyl}-3-{[5-(trifluoromethyl)thiophen-3-yl]oxy}piperidin-3-yl]carbonyl}-1,2,3,4-tetrahydroisoquinolin-3-yl]propanoic acid]
1 to 100	CCC[C@H]1N(C(=O)c2ncccc2C(F)(F)F)CCC[C@@]1(Oc1csc(C(F)(F)F)c1)C(=O)N1Cc2ccc(Cl)cc2C[C@@H]1C(C)CC(=O)O (stereo partly drawn) [Compound A133, 3-[(3R)-6-chloro-2-{[(2R,3S)-2-propyl-1-{[3-(trifluoromethyl)pyridin-2-yl]carbonyl}-3-{[5-(trifluoromethyl)thiophen-3-yl]oxy}piperidin-3-yl]carbonyl}-1,2,3,4-tetrahydroisoquinolin-3-yl]butanoic acid]
1 to 100	CCC[C@H]1N(C(=O)c2ncccc2C(F)(F)F)CCC[C@@]1(Oc1csc(C(F)(F)F)c1)C(=O)N1Cc2ccc(Br)cc2C[C@@H]1C(=O)O [Compound A134, (3R)-6-bromo-2-{[(2R,3S)-2-propyl-1-{[3-(trifluoromethyl)pyridin-2-yl]carbonyl}-3-{[5-(trifluoromethyl)thiophen-3-yl]oxy}piperidin-3-yl]carbonyl}-1,2,3,4-tetrahydroisoquinoline-3-carboxylic acid]
1 to 100	CCC[C@H]1N(C(=O)c2ncccc2C(F)(F)F)CCC[C@@]1(Oc1csc(C(F)(F)F)c1)C(=O)N1Cc2ccc(Cl)cc2C[C@@H]1CCC(=O)N(C)C [Compound A135, 3-[(3S)-6-chloro-2-{[(2R,3S)-2-propyl-1-{[3-(trifluoromethyl)pyridin-2-yl]carbonyl}-3-{[5-(trifluoromethyl)thiophen-3-yl]oxy}piperidin-3-yl]carbonyl}-1,2,3,4-tetrahydroisoquinolin-3-yl]-N,N-dimethylpropanamide]
1 to 100	CCC[C@H]1N(C(=O)c2ncccc2C(F)(F)F)CCC[C@@]1(Oc1csc(C(F)(F)F)c1)C(=O)N1Cc2ccc(Cl)cc2C[C@@H]1CCC(=O)NC [Compound A136, 3-[(3S)-6-chloro-2-{[(2R,3S)-2-propyl-1-{[3-(trifluoromethyl)pyridin-2-yl]carbonyl}-3-{[5-(trifluoromethyl)thiophen-3-yl]oxy}piperidin-3-yl]carbonyl}-1,2,3,4-tetrahydroisoquinolin-3-yl]-N-methylpropanamide]
1 to 100	CCC[C@H]1N(C(=O)c2ncccc2C(F)(F)F)CCC[C@@]1(Oc1csc(C(F)(F)F)c1)C(=O)N1Cc2ccc(Cl)cc2C[C@@H]1C[C@H](C)C(=O)O [Compound A137, (2S)-3-[(3S)-6-chloro-2-{[(2R,3S)-2-propyl-1-{[3-(trifluoromethyl)pyridin-2-yl]carbonyl}-3-{[5-(trifluoromethyl)thiophen-3-yl]oxy}piperidin-3-yl]carbonyl}-1,2,3,4-tetrahydroisoquinolin-3-yl]-2-methylpropanoic acid]
101 to 20000	CCC[C@H]1N(C(=O)c2ncccc2C(F)(F)F)CCC[C@@]1(Oc1csc(C(F)(F)F)c1)C(=O)N1CCc2ccc(F)cc2C1 [Compound A138, 7-fluoro-2-{[(2R,3S)-2-propyl-1-{[3-(trifluoromethyl)pyridin-2-yl]carbonyl}-3-{[5-(trifluoromethyl)thiophen-3-yl]oxy}piperidin-3-yl]carbonyl}-1,2,3,4-tetrahydroisoquinoline]
101 to 20000	CCC[C@H]1N(C(=O)c2ncccc2C(F)(F)F)CCC[C@@]1(Oc1csc(C(F)(F)F)c1)C(=O)N1CCc2ccc(Cl)cc2C1 [Compound A139, 7-chloro-2-{[(2R,3S)-2-propyl-1-{[3-(trifluoromethyl)pyridin-2-yl]carbonyl}-3-{[5-(trifluoromethyl)thiophen-3-yl]oxy}piperidin-3-yl]carbonyl}-1,2,3,4-tetrahydroisoquinoline]
101 to 20000	CCC[C@H]1N(C(=O)c2ncccc2C(F)(F)F)CCC[C@@]1(Oc1csc(C(F)(F)F)c1)C(=O)N1CCc2ccc(OC)cc2C1 [Compound A140, 7-methoxy-2-{[(2R,3S)-2-propyl-1-{[3-(trifluoromethyl)pyridin-2-yl]carbonyl}-3-{[5-(trifluoromethyl)thiophen-3-yl]oxy}piperidin-3-yl]carbonyl}-1,2,3,4-tetrahydroisoquinoline]
101 to 20000	CCC[C@H]1N(C(=O)c2ncccc2C(F)(F)F)CCC[C@@]1(Oc1csc(C(F)(F)F)c1)C(=O)N1Cc2ccc(Cl)cc2C[C@@H]1CCCF [Compound A141, (3S)-6-chloro-3-(3-fluoropropyl)-2-{[(2R,3S)-2-propyl-1-{[3-(trifluoromethyl)pyridin-2-yl]carbonyl}-3-{[5-(trifluoromethyl)thiophen-3-yl]oxy}piperidin-3-yl]carbonyl}-1,2,3,4-tetrahydroisoquinoline]
101 to 20000	CCC[C@H]1N(C(=O)c2ncccc2C(F)(F)F)CCC[C@@]1(Oc1csc(C(F)(F)F)c1)C(=O)N1CCc2ccc(Br)cc2C1 [Compound A142, 7-bromo-2-{[(2R,3S)-2-propyl-1-{[3-(trifluoromethyl)pyridin-2-yl]carbonyl}-3-{[5-(trifluoromethyl)thiophen-3-yl]oxy}piperidin-3-yl]carbonyl}-1,2,3,4-tetrahydroisoquinoline]
